Columns and labels:
meningeal carcinomatosis = conditions: intrathecal MTX; cited from earlier work
[1] = Toxicity of intrathecal FUDR in normal mice (body weight, symptoms, brain histology); assay type: in vivo, C57/BL6 mice; conditions: for body weight variation: days 0, 2, 4, 6
Description: Normal C57/BL6 mice divided into groups of 20 were given FUDR by intrathecal injection at a specified dose (0, 10, 25, 50 or 100 μg/0.05ml/head) on the day of start of the experiment, 2 days, 4 days and 6 days after the start. Two months after the completion of administration of the drug, the mice were all sacrificed, and brain tissues were collected, followed by hematoxylin & eosin staining and Kluver Barrera staining for histological investigation.

203 glioma cells = experiment: In vivo antitumor effect of intrathecal FUDR in mouse meningeal carcinomatosis model; set-up: species or system C57/BL6 mice; conditions: daily for 5 consecutive days, control group all dead
Description: Six-week-old C57/BL6 mice divided into groups of 22 or 23 were used to prepare models of meningeal carcinomatosis by directly puncturing the cisterna magna with a 26-gauge needle under anesthesia with ethyl ether and injecting transplantable 203 glioma cells (5×10^5 cells/0.05 ml). The mice were given a specified dose of FUDR by intrathecal injection (0, 25, 50, 100 or 250 μg/0.05 ml/head) daily for 5 consecutive days following the day of transplant.

[2] = test system: meningeal dissemination of malignant tumours; experiment: Clinical results of intrathecal chemotherapy with FUDR via Ommaya reservoir;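 further: 13 patients with meningeal spread from various primary tumours, treatment length adjusted to disease symptoms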
Description: The drug was given at a dose of 1 to 10 μg/body a day, three times a week. The period of administration was varied from 3 to 8 weeks in accordance with the symptoms of the disease.

[3] = high-dose group 100 μg/0.05 ml intrathecal
[4] = 1 to 10 μg/body a day intrathecal, three times a week, 3 to 8 weeks
[5] = per patient, before→after, CSF obtained by anterial horn of lateral ventricle
[6] = per patient, 1 to 10 μg/body a day intrathecal, three times a week, 3 to 8 weeks

## CN(Cc1cnc2nc(N)nc(N)c2n1)c1ccc(C(=O)N[C@@H](CCC(=O)O)C(=O)O)cc1 [MTX, methotrexate]
Meningeal carcinomatosis
  side effects limiting the dose: Acute neurotoxicity and retarded necrotizing encephalopathy

## O=c1[nH]c(=O)n([C@H]2C[C@H](O)[C@@H](CO)O2)cc1F [FUDR, 5-fluoro-deoxyuridine]
[1]; all dose groups 10-100 μg/0.05 ml intrathecal
  neurotic manifestation during and after administration: none of the mice developed neurotic manifestation
[1]; high-dose (100 μg/0.05 ml) group, two months after completion of administration
  histological changes in cranial nerve tissues (hematoxylin & eosin, Kluver Barrera staining): none of the mice exhibited abnormalities in the cranial nerve tissues
[1]; [3]
  side effects such as diarrhea: free of side effects such as frequent diarrhea
  body weight variation: transient weight decrease
[1]; medium-dose group 50 μg/0.05 ml intrathecal
  body weight variation: no weight decrease whatever
[1]; small-dose group 10 μg/0.05 ml intrathecal
  body weight variation: no weight decrease whatever
[1]; small-dose group 25 μg/0.05 ml intrathecal
  body weight variation: no weight decrease whatever
203 glioma cells; 100 μg/0.05 ml/head intrathecal
  survivors on day 14 postimplantation: 21 survivors among 22 animals
203 glioma cells; 250 μg/0.05 ml/head intrathecal
  survivors on day 14 postimplantation: 21 survivors among 22 animals
[2]; [4]
  efficacy, summary of 13 patients: diminutions of tumor marker, CSF cells and protein in CSF
  side effects, summary of 13 patients: none of side effects such as toxicity to the digestive tracts, neurotoxicity, myelosuppression, and dysfunction of the liver and kidney
[2]; [5]
  Cell numbers Ventricular CSF: 50.fwdarw
  Protein Ventricular CSF: 147.fwdar
[2]; per patient, before→after, CSF obtained by lumbar puncture
  Cell numbers Spinal CSF: 144.fwdar
[2]; [6]
  Response on CSF findings: No and Response and No Response
  Side effects: None

— patent publication US6140311A, “Therapy by intrathecal administration of antitumor agent FUDR” (priority 1997, dated 2000)
